Source: ChEMBL document CHEMBL6083251, “"Pseudosubstrate Envelope"/Free Energy Perturbation-Guided Design and Mechanistic Investigations of Benzothiazole HIV Capsid Modulators with High Ligand Efficiency” (J Med Chem, 2024)
Activity calls are given as the source filed them. The rule behind the calls is not given here.

Experiments:
[1] = biological target: Human immunodeficiency virus type 1 reverse transcriptase (Human immunodeficiency virus 1) (UniProt Q72547); details: dose 10.0 nM, time 1.0 hrs
[2] = biological target: Structural capsid protein (Human immunodeficiency virus 1) (UniProt Q76129); experiment: Binding affinity to monomeric HIV-1 NL4.3 capsid protein assessed as dissociation rate (Koff) by SPR assay; details: filed as modulator
Chain of Structural capsid protein (Human immunodeficiency virus 1) (Q76129 as listed by the source): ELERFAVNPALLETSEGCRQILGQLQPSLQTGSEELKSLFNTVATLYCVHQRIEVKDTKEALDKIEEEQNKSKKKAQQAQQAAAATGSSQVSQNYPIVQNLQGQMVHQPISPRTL

[3] = Metabolic stability in human liver microsomes assessed as half life at 1 uM incubated for 60 mins by LC-MS/MS analysis; type: ADME, Microsome
[4] = test system: Human immunodeficiency virus 1; experiment: Anti-HIV activity against wild type HIV-1 IIIB infected in human MT4 cells assessed as protection against virus-induced cytopathic effect incubated for 5 days by spectrophotometric based MTT assay; type: functional, organism-based; details: Human immunodeficiency virus 1, IIIB, MT4, 120 h
[5] = biological target: Structural capsid protein (Human immunodeficiency virus 1) (UniProt Q76129); experiment: Binding affinity to hexameric HIV-1 NL4.3 capsid protein assessed as residence time by SPR assay; details: filed as modulator
[6] = test system: MT4; experiment: Cytotoxicity against human MT4 cells assessed as reduction in cell viability incubated for 5 days by spectrophotometric based MTT assay; type: functional; details: MT4, 120 h, time 5 day
[7] = test system: Human immunodeficiency virus 2; experiment: Anti-HIV activity against HIV-2 ROD infected in human MT-4 cells assessed as protection against virus-induced cytopathic effect incubated for 5 days by spectrophotometric based MTT assay; type: functional, organism-based; details: Human immunodeficiency virus 2, ROD, MT4, 120 h
[8] = biological target: Structural capsid protein (Human immunodeficiency virus 1) (UniProt Q76129); experiment: Binding affinity to hexameric HIV-1 NL4.3 capsid protein assessed as dissociation rate (Koff) by SPR assay; details: filed as modulator
[9] = test system: Human immunodeficiency virus 1; experiment: Anti-HIV activity against HIV-1 IIIB infected in human MT4 cells assessed as protection against virus-induced cytopathic effect incubated for 5 days by spectrophotometric based MTT assay; details: Human immunodeficiency virus 1, IIIB, MT4, 120 h
[10] = Metabolic stability in human liver microsomes assessed as intrinsic clearance at 1 uM incubated for 60 mins by LC-MS/MS analysis; type: ADME, Microsome; details: read-out: CLH
[11] = biological target: Structural capsid protein (Human immunodeficiency virus 1) (UniProt Q76129); experiment: Binding affinity to monomeric HIV-1 NL4.3 capsid protein assessed as residence time by SPR assay; details: filed as modulator
[12] = test system: Human immunodeficiency virus 1; experiment: Antiviral activity against pseudotyped HIV-1 expressing luciferase-reporter transfected in HEK293T cells assessed as viral inhibition at early stage incubated for 48 hrs by Single-round infection assay; type: functional, organism-based
[13] = biological target: T1, Structural capsid protein (Human immunodeficiency virus 1, UniProt Q76129); experiment: Binding affinity to monomeric HIV-1 NL4.3 capsid protein assessed as dissociation constant by SPR assay
T1 sequence (Q76129 whole entry): as the sequence (Q76129 as listed by the source) above

[14] = biological target: T1, Structural capsid protein; experiment: Binding affinity to hexameric HIV-1 NL4.3 capsid protein assessed as dissociation constant by SPR assay
[15] = Selectivity index, ratio of CC50 for human MT4 cells to EC50 for HIV-2 ROD infected in human MT-4 cells; type: toxicity, cell-based; details: read-out: Selectivity Index
[16] = biological target: Structural capsid protein (Human immunodeficiency virus 1) (UniProt Q76129); experiment: Binding affinity to HIV-1 hexameric capsid protein assessed as reduction in CPSF6 binding to capsid protein by competition assay based SPR analysis; details: filed as modulator
[17] = test system: Human immunodeficiency virus 1; experiment: Antiviral activity against pseudotyped HIV-1 expressing luciferase-reporter transfected in HEK293T cells assessed as increase in p24 level in progeny virions by ELISA analysis; type: functional, organism-based
[18] = Selectivity ratio of EC50 for wild type HIV-1 IIIB infected in human MT4 cells to EC50 for HIV-2 ROD infected in human MT-4 cells assessed as protection against virus-induced cytopathic effect incubated for 5 days by spectrophotometric based MTT assay; type: functional; details: time 5 day
[19] = Selectivity index, ratio of CC50 for human MT4 cells to EC50 for wild type HIV-1 IIIB infected in human MT4 cells; type: toxicity, cell-based; details: read-out: Selectivity Index
[20] = test system: Human immunodeficiency virus 1; experiment: Antiviral activity against pseudotyped HIV-1 expressing luciferase-reporter transfected in HEK293T cells assessed as viral inhibition at late stage incubated for 48 hrs by Single-round infection assay; type: functional, organism-based
[21] = biological target: Human immunodeficiency virus type 1 reverse transcriptase (Human immunodeficiency virus 1) (UniProt Q72547); experiment: Inhibition of HIV1 reverse transcriptase at 24 nM incubated for 1 hr by ELISA analysis
[22] = biological target: Structural capsid protein (Human immunodeficiency virus 1) (UniProt Q76129); experiment: Binding affinity to HIV-1 hexameric capsid protein assessed as reduction in NUP153 binding to capsid protein by competition assay based SPR analysis; details: filed as modulator

## Cc1cc(/C=C/C#N)cc(C)c1Nc1ccnc(Nc2ccc(C#N)cc2)n1
[1]
  inhibition: Active

## Cc1[nH]c2ccccc2c1CC(=O)N[C@@H](Cc1ccccc1)C(=O)N(C)c1ccccc1
[2]
  K: 2.21 10^-1/s
[3]
  half-life at 1 µM: 0.7 min
[4]
  EC50: 1060 nM
[5]
  TIME: 0.000617 h
[6]
  CC50: 134000 nM
[7]
  EC50: 2840 nM
[8]
  K: 4.48 10^-1/s
[9]
  EC50: 800 nM
[10]
  CLint scaled at 1 µM: 2110 mL/min/kg
[11]
  TIME: 0.00125 h

## CN(C(=O)[C@H](Cc1cc(F)cc(F)c1)NC(=O)Cc1c[nH]c2ccc(N)cc12)c1ccc2scnc2c1
[12]
  Activity: Active
[13]
  Kd: 196 nM
[3]
  half-life at 1 µM: 68.5 min
[14]
  Kd: 94.5 nM
[4]
  EC50: 11.9 nM
[15]
  selectivity ratio: 831
[16]
  Activity: Active
[17]
  Activity: inactive
[18]
  Ratio EC50: 0.05
[6]
  CC50: 192000 nM
[7]
  EC50: 231 nM
[19]
  selectivity ratio: 16100
[20]
  Activity: Active
[21]
  inhibition: inactive
[22]
  Activity: Active
[10]
  CLint scaled at 1 µM: 20.2 mL/min/kg
